The source of these data is patent US11084795B2, “CFTR regulators and methods of use thereof” (The Regents of the University of California, priority 2015, dated 2021).

Data set [1] relates to cellular cAMP. The data set is described as follows: GloSensor cAMP assay in FRT cells. Format: cell-based, rat. The note with it: 1c at 10 μM. How it is done:
Intracellular cAMP activity was measured using a GloSensor luminescence assay (Promega Corp., Madison, Wisconson, USA). FRT null cells were stably transfected with the pGloSensor cAMP plasmid and plated onto white 96-well microplates and grown to confluence. Cells were washed three times with PBS and incubated with 5 μM CFTRact-J027 for 10 min in the absence and presence of 100 nM forskolin. cAMP was assayed according to the manufacturer's instructions.
Intracellular cAMP activity was measured using a GloSensor luminescence assay (Promega Corp., Madison, Wis., USA). FRT cells stably transfected with the pGloSensor cAMP plasmid (Promega Corp.) were cultured in white 96-well microplates (Corning Costar) overnight. Cells were then washed three times with PBS and incubated with 5 μM test compound for 10 min in the absence and presence of 100 nM forskolin.
cAMP assay. Intracellular cAMP activity was measured using a GloSensor luminescence assay (Promega Corp., Madison, Wisconson, USA). FRT null cells were stably transfected with the pGloSensor cAMP plasmid and plated onto white 96-well microplates and grown to confluence. […]
cAMP and cytotoxicity assays. Intracellular cAMP activity was measured using a GloSensor luminescence assay (Promega Corp., Madison, Wis., USA). […]

Data set [2] in a line: In vitro metabolic stability in mouse liver microsomes. The note with it: mouse hepatic microsomes, NADPH. In kind it is in vitro ADME. The method, then: CFTRact-J027 (5 μM) was incubated for specified times at 37° C. with mouse liver microsomes (1 mg protein/ml; Sigma-Aldrich) in potassium phosphate buffer (100 mM) containing 1 mM NADPH, as described. The mixture was then chilled on ice, and 0.5 ml of ice-cold ethyl acetate was added. Samples were centrifuged for 15 min at 3000 rpm, the supernatant evaporated to dryness, and the residue was dissolved in 100 μL mobile phase (acetonitrile:water, 3:1) for LC/MS and assayed as described above.
In vitro metabolic stability. CFTRact-J027 (5 μM) was incubated for specified times at 37° C. with mouse liver microsomes (1 mg protein/ml; Sigma-Aldrich) in potassium phosphate buffer (100 mM) containing 1 mM NADPH, as described. The mixture was then chilled on ice, and 0.5 ml of ice-cold ethyl acetate was added. Samples were centrifuged for 15 min at 3000 rpm, the supernatant evaporated to dryness, and the residue was dissolved in 100 μL mobile phase (acetonitrile:water, 3:1) for LC/MS and assayed as described above.
In vitro metabolic stability. Test compound (at 5 μM) was incubated for specified times at 37° C. with mouse liver microsomes (1 mg protein/ml; Sigma-Aldrich, St. Louis, Mo.) in potassium phosphate buffer containing 1 mM NADPH, as described. Following ethyl acetate extraction, non-metabolized parent compound was assayed by LC/MS.

Data set [3] relates to cytoplasmic calcium. The data set is described as follows: Cytoplasmic calcium (Fluo-4) in FRT cells. The following applies: 1c at 10 μM; ATP as calcium agonist. Format: cell-based, rat. How it is done: FIGS. 23A-23D. In vitro characterization of compound 1c. FIG. 23A. Cellular cAMP in FRT cells in response to incubation for 10 min with […] 1c without or with 90 nM forskolin (fsk). Positive controls included fsk (100 nM and 20 pM) and fsk+IBMX (20 pM+100 pM) (mean±S.E.M., n=4). FIG. 23B. Cytoplasmic calcium measured by Fluo-4 fluorescence. FRT cells were pretreated for 5 min with 10 pM 1c (or control), with 100 pM ATP added as a calcium agonist as indicated. FIG. 23C. […] FIG. 23D.

The subject of data set [4] is calcium-activated chloride channels in HT-29 cells. The data set is described as follows: CaCC activity in HT-29 cells expressing YFP. Format: cell-based. The following applies: 1c at 10 μM.
Data set [5] concerns TMEM16A. The data set is described as follows: TMEM16A activity in FRT cells expressing YFP and TMEM16A. In kind it is cell-based. The note with it: 1c at 10 μM.
The subject of data set [6] is loperamide-treated mice. The data set is described as follows: Loperamide-induced mouse model of constipation. The note with it: 1c orally 1 h prior to loperamide, 3-h stool.
The target in data set [7] is T1, human wildtype CFTR (Homo sapiens, UniProt P13569). The data set is described as follows: Short-circuit current (Isc) in FRT cells expressing human wild-type CFTR. The following applies: read-out: EC50 for CFTR activation; FRT cells, wild-type CFTR, short-circuit current.
The target of data set [8] is T1, human wildtype CFTR. The data set is described as follows: Fluorescence plate reader assay of iodide influx in FRT cells co-expressing CFTR and YFP halide sensor.

Entries after “also recorded” stand apart in the source; their conditions may differ. Bounds are passed on as bounds.

T1 sequence (P13569 whole entry): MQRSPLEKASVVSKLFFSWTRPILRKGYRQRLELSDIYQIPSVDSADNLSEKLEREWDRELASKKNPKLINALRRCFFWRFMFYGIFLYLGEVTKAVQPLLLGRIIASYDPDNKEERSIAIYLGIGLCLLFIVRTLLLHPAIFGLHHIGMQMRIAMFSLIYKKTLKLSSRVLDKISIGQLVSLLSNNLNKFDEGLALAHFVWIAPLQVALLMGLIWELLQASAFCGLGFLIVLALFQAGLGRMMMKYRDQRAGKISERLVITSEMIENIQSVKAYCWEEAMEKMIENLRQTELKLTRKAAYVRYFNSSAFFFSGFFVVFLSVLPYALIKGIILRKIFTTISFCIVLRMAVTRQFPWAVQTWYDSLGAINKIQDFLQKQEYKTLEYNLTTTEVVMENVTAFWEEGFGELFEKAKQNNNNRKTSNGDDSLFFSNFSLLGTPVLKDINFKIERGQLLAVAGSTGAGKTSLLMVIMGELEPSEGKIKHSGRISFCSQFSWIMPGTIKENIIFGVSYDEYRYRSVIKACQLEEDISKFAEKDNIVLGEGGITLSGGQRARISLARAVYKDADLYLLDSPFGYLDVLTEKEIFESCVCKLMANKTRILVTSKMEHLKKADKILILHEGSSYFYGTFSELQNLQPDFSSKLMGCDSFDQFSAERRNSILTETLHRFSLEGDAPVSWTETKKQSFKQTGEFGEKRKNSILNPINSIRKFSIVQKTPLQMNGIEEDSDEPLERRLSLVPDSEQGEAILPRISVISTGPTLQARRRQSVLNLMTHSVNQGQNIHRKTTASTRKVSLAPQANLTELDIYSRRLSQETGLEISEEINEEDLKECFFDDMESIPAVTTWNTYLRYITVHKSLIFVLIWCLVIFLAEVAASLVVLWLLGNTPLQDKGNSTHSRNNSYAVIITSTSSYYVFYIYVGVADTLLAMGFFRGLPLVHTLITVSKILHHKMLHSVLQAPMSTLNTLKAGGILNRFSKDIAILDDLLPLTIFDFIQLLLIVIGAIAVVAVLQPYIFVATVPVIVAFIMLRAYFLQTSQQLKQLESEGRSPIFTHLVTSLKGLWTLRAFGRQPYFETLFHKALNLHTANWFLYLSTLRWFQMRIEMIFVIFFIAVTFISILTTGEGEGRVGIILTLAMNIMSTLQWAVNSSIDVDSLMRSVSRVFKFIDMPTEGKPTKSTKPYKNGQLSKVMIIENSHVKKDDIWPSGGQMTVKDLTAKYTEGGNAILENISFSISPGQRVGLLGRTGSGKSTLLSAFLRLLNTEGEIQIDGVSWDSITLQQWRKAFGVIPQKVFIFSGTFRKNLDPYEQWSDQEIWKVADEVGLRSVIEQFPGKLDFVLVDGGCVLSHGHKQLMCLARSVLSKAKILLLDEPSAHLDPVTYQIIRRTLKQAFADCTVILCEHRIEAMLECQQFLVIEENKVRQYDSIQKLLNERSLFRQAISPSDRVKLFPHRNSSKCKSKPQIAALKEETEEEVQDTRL

As to `O=c1c(-c2cccc([N+](=O)[O-])c2)nc2ccccc2n1Cc1ccccc1` [Compound 1c, 1-Benzyl-3-(3-nitrophenyl)quinoxalin-2(1H)-one], the “effect on cellular cAMP level” value in data set [1] is “did not affect the cellular cAMP level”. Moreover, the “compound metabolized at 60 min” value in data set [2] was < 40%. Moreover, the cytoplasmic calcium entry in data set [3] was “nor did it elevate cytoplasmic calcium or inhibit the ATP-stimulated elevation in cytoplasmic calcium”. The “activation or inhibition of calcium-activated chloride channels in HT-29 cells” value in data set [4] is listed as “no activation (iodide addition) or inhibition (iodide+ATP addition); also recorded: neither inhibited nor activated”. Also, the “activation or inhibition of TMEM16A” value in data set [5] is given as “no activation (iodide addition) or inhibition (iodide+ATP addition); also recorded: neither inhibited nor activated”. Also, the “stool weight, pellet number and hydration” value in data set [6] is “fully normalized stool weight, pellet number and hydration”. The EC50 in data set [7] was 21 nM; in data set [8] (read-out: EC50, variation in the 3-aryl ring, plate reader assay) it was 9 nM; in data set [8] (synthesized compounds, full dose-response study, 125 nM forskolin) it was 9 nM. Also, the “increased potency compared to 4” value in data set [8] (plate reader assay) is reported as ~10 fold.
